Test results: PubChem BioAssay AID1259407 (Chemical Carcinogenesis Research Information System (CCRIS), 2018)
Activity calls are given as the source filed them. The rule behind the calls is not given here.

Test system: CCRIS mutagenicity, Ames/micronucleus/aberration tests
Assay: CCRIS mutagenicity studies
[1] = Test System: AMES SALMONELLA TYPHIMURIUM, Strain/Indicator: TA98, Metabolic Activation: NONE, Method: PREINCUBATION
[2] = Test System: AMES SALMONELLA TYPHIMURIUM, Strain/Indicator: TA100, Metabolic Activation: NONE, Method: PREINCUBATION
[3] = Test System: AMES SALMONELLA TYPHIMURIUM, Strain/Indicator: TA98, Metabolic Activation: NONE, Method: STANDARD PLATE
[4] = Test System: AMES SALMONELLA TYPHIMURIUM, Strain/Indicator: TA98, Metabolic Activation: S-9, Method: STANDARD PLATE
[5] = Test System: AMES SALMONELLA TYPHIMURIUM, Strain/Indicator: TA100, Metabolic Activation: NONE, Method: STANDARD PLATE
[6] = Test System: AMES SALMONELLA TYPHIMURIUM, Strain/Indicator: TA100, Metabolic Activation: S-9, Method: STANDARD PLATE
[7] = Test System: AMES SALMONELLA TYPHIMURIUM, Strain/Indicator: TA1535, Metabolic Activation: NONE, Method: STANDARD PLATE
[8] = Test System: AMES SALMONELLA TYPHIMURIUM, Strain/Indicator: TA1535, Metabolic Activation: S-9, Method: STANDARD PLATE
[9] = Test System: AMES SALMONELLA TYPHIMURIUM, Strain/Indicator: TA98, Metabolic Activation: RAT, LIVER, S-9, AROCLOR 1254, Method: STANDARD PLATE
[10] = Test System: AMES SALMONELLA TYPHIMURIUM, Strain/Indicator: TA100, Metabolic Activation: RAT, LIVER, S-9, AROCLOR 1254, Method: STANDARD PLATE
[11] = Test System: AMES SALMONELLA TYPHIMURIUM, Strain/Indicator: TA1535, Metabolic Activation: RAT, LIVER, S-9, AROCLOR 1254, Method: STANDARD PLATE
[12] = Test System: AMES SALMONELLA TYPHIMURIUM, Strain/Indicator: TA1537, Metabolic Activation: NONE, Method: STANDARD PLATE

## CC(C)CC=O
[1]
  mutagenic call: inactive; negative
Test System: AMES SALMONELLA TYPHIMURIUM, Strain/Indicator: TA98, Metabolic Activation: RAT, LIVER, S-9, AROCLOR 1254, Method: PREINCUBATION
  mutagenic call: inactive; negative
[2]
  mutagenic call: inactive; negative
Test System: AMES SALMONELLA TYPHIMURIUM, Strain/Indicator: TA100, Metabolic Activation: RAT, LIVER, S-9, AROCLOR 1254, Method: PREINCUBATION
  mutagenic call: inactive; negative
Test System: AMES SALMONELLA TYPHIMURIUM, Strain/Indicator: TA102, Metabolic Activation: NONE, Method: PREINCUBATION
  mutagenic call: inactive; negative
Test System: AMES SALMONELLA TYPHIMURIUM, Strain/Indicator: TA102, Metabolic Activation: RAT, LIVER, S-9, AROCLOR 1254, Method: PREINCUBATION
  mutagenic call: inactive; negative

## COP(=S)(OC)SCC(=O)N(C)C=O
Test System: AMES SALMONELLA TYPHIMURIUM, Strain/Indicator: TA97A, Metabolic Activation: NONE, Method: STANDARD PLATE
  mutagenic call: inactive; negative
Test System: AMES SALMONELLA TYPHIMURIUM, Strain/Indicator: TA97A, Metabolic Activation: PLANT, HOMOGENATE, S-14, Method: STANDARD PLATE
  mutagenic call: inactive; negative
Test System: AMES SALMONELLA TYPHIMURIUM, Strain/Indicator: TA97A, Metabolic Activation: S-9, Method: STANDARD PLATE
  mutagenic call: inactive; negative
[3]
  mutagenic call: inactive; negative
Test System: AMES SALMONELLA TYPHIMURIUM, Strain/Indicator: TA98, Metabolic Activation: PLANT, HOMOGENATE, S-14, Method: STANDARD PLATE
  mutagenic call: inactive; negative
[4]
  mutagenic call: inactive; negative
[5]
  mutagenic call: inactive; negative
Test System: AMES SALMONELLA TYPHIMURIUM, Strain/Indicator: TA100, Metabolic Activation: PLANT, HOMOGENATE, S-14, Method: STANDARD PLATE
  mutagenic call: inactive; negative
[6]
  mutagenic call: inactive; negative
[7]
  mutagenic call: inactive; negative
Test System: AMES SALMONELLA TYPHIMURIUM, Strain/Indicator: TA1535, Metabolic Activation: PLANT, HOMOGENATE, S-14, Method: STANDARD PLATE
  mutagenic call: inactive; negative
[8]
  mutagenic call: inactive; negative

## CC1=C(N=O)CNc2c1nc1c(C)cccn21
[3]
  mutagenic call: active; positive
Test System: AMES SALMONELLA TYPHIMURIUM, Strain/Indicator: TA98, Metabolic Activation: RAT, LIVER, CYTOSOL, AROCLOR 1254, Method: STANDARD PLATE
  mutagenic call: active; positive
Test System: AMES SALMONELLA TYPHIMURIUM, Strain/Indicator: TA98, Metabolic Activation: RAT, LIVER, MICROSOMES, AROCLOR 1254, Method: STANDARD PLATE
  mutagenic call: active; positive
[9]
  mutagenic call: active; positive

## O=C(Oc1ccccc1)c1ccccc1O
Test System: AMES SALMONELLA TYPHIMURIUM, Strain/Indicator: TA98, Metabolic Activation: HAMSTER, LIVER, S-9, AROCLOR 1254 (10%), Method: PREINCUBATION
  mutagenic call: inactive; negative
[1]
  mutagenic call: inactive; negative
Test System: AMES SALMONELLA TYPHIMURIUM, Strain/Indicator: TA98, Metabolic Activation: RAT, LIVER, S-9, AROCLOR 1254 (10%), Method: PREINCUBATION
  mutagenic call: inactive; negative
Test System: AMES SALMONELLA TYPHIMURIUM, Strain/Indicator: TA100, Metabolic Activation: HAMSTER, LIVER, S-9, AROCLOR 1254 (10%), Method: PREINCUBATION
  mutagenic call: inactive; negative
[2]
  mutagenic call: inactive; negative
Test System: AMES SALMONELLA TYPHIMURIUM, Strain/Indicator: TA100, Metabolic Activation: RAT, LIVER, S-9, AROCLOR 1254 (10%), Method: PREINCUBATION
  mutagenic call: inactive; negative
Test System: AMES SALMONELLA TYPHIMURIUM, Strain/Indicator: TA1535, Metabolic Activation: HAMSTER, LIVER, S-9, AROCLOR 1254 (10%), Method: PREINCUBATION
  mutagenic call: inactive; negative
Test System: AMES SALMONELLA TYPHIMURIUM, Strain/Indicator: TA1535, Metabolic Activation: NONE, Method: PREINCUBATION
  mutagenic call: inactive; negative
Test System: AMES SALMONELLA TYPHIMURIUM, Strain/Indicator: TA1535, Metabolic Activation: RAT, LIVER, S-9, AROCLOR 1254 (10%), Method: PREINCUBATION
  mutagenic call: inactive; negative
Test System: AMES SALMONELLA TYPHIMURIUM, Strain/Indicator: TA1537, Metabolic Activation: HAMSTER, LIVER, S-9, AROCLOR 1254 (10%), Method: PREINCUBATION
  mutagenic call: inactive; negative
Test System: AMES SALMONELLA TYPHIMURIUM, Strain/Indicator: TA1537, Metabolic Activation: NONE, Method: PREINCUBATION
  mutagenic call: inactive; negative
Test System: AMES SALMONELLA TYPHIMURIUM, Strain/Indicator: TA1537, Metabolic Activation: RAT, LIVER, S-9, AROCLOR 1254 (10%), Method: PREINCUBATION
  mutagenic call: inactive; negative

## C[C@@H]1NCCc2cc(O)c(O)cc21
End Point: IN VITRO CHROMOSOMAL ABERRATIONS, Test System: CHL FIBROBLAST CELLS, Metabolic Activation: NONE
  mutagenic call: active; positive
End Point: IN VITRO CHROMOSOMAL ABERRATIONS, Test System: CHL FIBROBLAST CELLS, Metabolic Activation: RAT, LIVER, S-9 (5%)
  mutagenic call: inactive; negative

## Nc1[nH]c(=O)nc2c1ncn2[C@@H]1O[C@H](CO)[C@@H](O)[C@H]1O
[2]
  mutagenic call: inactive; negative

## O[C@H]1c2ccccc2-c2cc3ccc4ccccc4c3cc2[C@@H]1O
[10]
  mutagenic call: active; positive

## c1cc[c]([Sb]([c]2ccccc2)[c]2ccccc2)cc1
[11]
  mutagenic call: active; positive
Test System: Mouse lymphoma, Strain/Indicator: L5178Y (tk+/tk-), Metabolic Activation: None, Method: Suspension/plate
  mutagenic call: inactive; negative
Test System: Mouse lymphoma, Strain/Indicator: L5178Y (tk+/tk-), Metabolic Activation: Rat, Liver, S-9, Aroclor 1254, Method: Suspension/plate
  mutagenic call: active; equivocal (previous evaluation positive)

## CC(C)CC(=O)OCc1cocc2c(C=O)ccc1-2
[3]
  mutagenic call: active; positive
[9]
  mutagenic call: active; positive
[5]
  mutagenic call: active; positive
[10]
  mutagenic call: active; positive
[7]
  mutagenic call: inactive; negative
[11]
  mutagenic call: inactive; negative
[12]
  mutagenic call: inactive; negative
Test System: AMES SALMONELLA TYPHIMURIUM, Strain/Indicator: TA1537, Metabolic Activation: RAT, LIVER, S-9, AROCLOR 1254, Method: STANDARD PLATE
  mutagenic call: inactive; negative

## O=C(CCl)Nc1snc2cc(Cl)ccc12
[3]
  mutagenic call: inactive; negative
[4]
  mutagenic call: active; positive
[5]
  mutagenic call: active; positive
[6]
  mutagenic call: active; positive
[7]
  mutagenic call: inactive; negative
[8]
  mutagenic call: inactive; negative
[12]
  mutagenic call: active; positive
Test System: AMES SALMONELLA TYPHIMURIUM, Strain/Indicator: TA1537, Metabolic Activation: S-9, Method: STANDARD PLATE
  mutagenic call: active; positive

## C=C1C[C@@]23CC[C@H]4[C@@](C)(CCC[C@@]4(C)C(=O)O[C@@H]4O[C@H](CO)[C@@H](O)[C@H](O)[C@H]4O)[C@@H]2CC[C@]1(O[C@@H]1O[C@H](CO)[C@@H](O)[C@H](O[C@@H]2O[C@H](CO)[C@@H](O)[C@H](O)[C@H]2O)[C@H]1O[C@@H]1O[C@H](CO)[C@@H](O)[C@H](O)[C@H]1O)C3
Test System: AMES SALMONELLA TYPHIMURIUM, Strain/Indicator: TM677, Metabolic Activation: RAT, LIVER, S-9, AROCLOR 1254, Method: PREINCUBATION
  mutagenic call: inactive; negative
